Assay results taken from patent US6552014B2, “Methods of inhibiting platelet activation with selective serotonin reuptake inhibitors” (HeartDrug Research, L.L.C., priority 1999, dated 2003).

Tests used:
Experiment in all cases: Flow cytometry of platelet antigen expression, platelet rich plasma
Assay type in all cases: cell-based, human
Conditions in all cases: PRP
CD9 = tested on: CD9
Excerpt: (§1) For ex vivo assessment of the SSRIs effect on a PAM, a level of a PAM can be assessed by flow cytometry by first obtaining a sample that comprises platelets and then contacting the sample with a platelet activation agonist, such as phorbol myristate acetate (PMA), ADP (adenosine diphosphate), thrombin, collagen, and/or TRAP (thrombin receptor activating peptide), under conditions suitable for activation of platelets in the sample. The sample is in contact with the agonist preferably for a period of time effective to maximally activate the platelets. […] NDMS at 31.1, 64.1 or 143 ng./ml). Then one contacts or stains the samples with a composition that comprises an anti-PAM antibody e.g., having a fluorescent label, preferably in an amount in excess of that required to bind the PAM expressed on the platelets, under conditions suitable for the formation of labeled complexes between the anti-PAM antibody and activated platelets. Then the formation of the complex in the sample is determined (detected or measured). […] The blood-ACD mixture was centrifuged at 1000 r.p.m. for 10 minutes at room temperature. […] The PRP was then centrifuged at 3000 r.p.m. for 10 minutes. […] All cells were then divided into ten plastic capped tubes. Nine portions of washed platelets were incubated with 5 μfluorescein isothiocyanate (FITC)-conjugated antibodies in the dark at +4 °C for 30 minutes, and one part remained unstained and served as a negative control. Surface antigen expression was measured with monoclonal murine anti-human antibodies: CD9 (p24); CD41a (IIb/IIIa, aIIIbb3); CD42b (Ib); CD61(IIIa) (DAKO Corporation, Carpinteria Calif.); CD49b (VLA-2, or a2b1); CD62p (P-selectin); CD31 (PECAM-1); […] The instrument was calibrated daily with fluorescence beads (CaliBRITE; Becton Dickinson) and measured FITC-conjugated fluorescence intensity. All parameters were obtained using four decade logarithmic amplification. The data was collected and stored in list mode, and then analyzed using CELLQuest® (version 1.2.2) software. Procedures are described in detail in (Gurbel, P. […] Serebruany, V. […] Gurbel, P. A. et al., Coron Artery Dis 9: 451-456 (1998) and Serebruany, V. L. et al., Arterioscl Thromb Vasc Biol 19: 153-158 (1999)). The data in table 1 was obtained using the methods described herein, and in particular, in Examples 1 and 2. The levels of various PAMs were assess from samples of human volunteers.

CPIa-IIa = tested on: CPIa-IIa
Excerpt: as §1

GP IIIa = tested on: GP IIIa
Excerpt: as §1

GP IIb/IIIa = tested on: GP IIb/IIIa
Excerpt: as §1

GP IIb = tested on: GP IIb
Excerpt: as §1

GP Ib = tested on: GP Ib
Excerpt: as §1

PECAM-1 = tested on: PECAM-1
Excerpt: as §1

[1] = healthy volunteers, desmethylsertraline 31.1 ng/ml
[2] = healthy volunteers, desmethylsertraline 64.2 ng/ml
[3] = healthy volunteers, desmethylsertraline 143 ng/ml
[4] = post-angioplasty patient on aspirin, desmethylsertraline 31.1 ng/ml
[5] = post-angioplasty patient on aspirin, desmethylsertraline 64.2 ng/ml
[6] = post-angioplasty patient on aspirin, desmethylsertraline 143 ng/ml

N[C@H]1CC[C@@H](c2ccc(Cl)c(Cl)c2)c2ccccc21 [Desmethyl sertraline, N-desmethylsertraline]
CD9 (mean) log fluorescence intensity (CD9; [1]): 728 | CD9 (peak) log fluorescence intensity (CD9; [1]): 620 | CD9 (peak) log fluorescence intensity (CD9; [2]): 805 | CD9 (mean) log fluorescence intensity (CD9; [3]): 837 | CD9 (peak) log fluorescence intensity (CD9; [3]): 770 | CD9 (mean) log fluorescence intensity (CD9; [4]): 908 | CD9 (peak) log fluorescence intensity (CD9; [4]): 1046 | CD9 (mean) log fluorescence intensity (CD9; [5]): 927 | CD9 (peak) log fluorescence intensity (CD9; [5]): 930 | CD9 (mean) log fluorescence intensity (CD9; [6]): 853 | CD9 (peak) log fluorescence intensity (CD9; [6]): 850 | CPIa-IIa (mean) log fluorescence intensity (CPIa-IIa; [1]): 41 | CPIa-IIa (peak) log fluorescence intensity (CPIa-IIa; [1]): 42 | CPIa-IIa (mean) log fluorescence intensity (CPIa-IIa; [3]): 43 | CPIa-IIa (peak) log fluorescence intensity (CPIa-IIa; [3]): 40 | CPIa-IIa (mean) log fluorescence intensity (CPIa-IIa; [4]): 62 | CPIa-IIa (peak) log fluorescence intensity (CPIa-IIa; [4]): 59 | CPIa-IIa (mean) log fluorescence intensity (CPIa-IIa; [5]): 62 | CPIa-IIa (peak) log fluorescence intensity (CPIa-IIa; [5]): 53 | CPIa-IIa (mean) log fluorescence intensity (CPIa-IIa; [6]): 40 | CPIa-IIa (peak) log fluorescence intensity (CPIa-IIa; [6]): 48 | GP IIIa (mean) log fluorescence intensity (GP IIIa; [1]): 981 | GP IIIa (peak) log fluorescence intensity (GP IIIa; [1]): 913 | GP IIIa (mean) log fluorescence intensity (GP IIIa; [2]): 1178 | GP IIIa (mean) log fluorescence intensity (GP IIIa; [3]): 1182 | GP IIIa (peak) log fluorescence intensity (GP IIIa; [3]): 1046 | GP IIIa (mean) log fluorescence intensity (GP IIIa; [4]): 1235 | GP IIIa (peak) log fluorescence intensity (GP IIIa; [4]): 1298 | GP IIIa (peak) log fluorescence intensity (GP IIIa; [5]): 1144 | GP IIIa (mean) log fluorescence intensity (GP IIIa; [6]): 1259 | GP IIIa (peak) log fluorescence intensity (GP IIIa; [6]): 1219 | GP IIb/IIIa (mean) log fluorescence intensity (GP IIb/IIIa; [1]): 580 | GP IIb/IIIa (peak) log fluorescence intensity (GP IIb/IIIa; [1]): 457 | GP IIb/IIIa (mean) log fluorescence intensity (GP IIb/IIIa; [2]): 743 | GP IIb/IIIa (peak) log fluorescence intensity (GP IIb/IIIa; [2]): 649 | GP IIb/IIIa (mean) log fluorescence intensity (GP IIb/IIIa; [3]): 708 | GP IIb/IIIa (peak) log fluorescence intensity (GP IIb/IIIa; [3]): 509 | GP IIb/IIIa (mean) log fluorescence intensity (GP IIb/IIIa; [4]): 948 | GP IIb/IIIa (peak) log fluorescence intensity (GP IIb/IIIa; [4]): 791 | GP IIb/IIIa (mean) log fluorescence intensity (GP IIb/IIIa; [5]): 918 | GP IIb/IIIa (peak) log fluorescence intensity (GP IIb/IIIa; [5]): 777 | GP IIb/IIIa (mean) log fluorescence intensity (GP IIb/IIIa; [6]): 836 | GP IIb/IIIa (peak) log fluorescence intensity (GP IIb/IIIa; [6]): 716 | GP IIb (mean) log fluorescence intensity (GP IIb; [1]): 33 | GP IIb (peak) log fluorescence intensity (GP IIb; [1]): 31 | GP IIb (peak) log fluorescence intensity (GP IIb; [2]): 31 | GP IIb (mean) log fluorescence intensity (GP IIb; [3]): 30 | GP IIb (peak) log fluorescence intensity (GP IIb; [3]): 35 | GP IIb (mean) log fluorescence intensity (GP IIb; [4]): 24 | GP IIb (peak) log fluorescence intensity (GP IIb; [4]): 21 | GP IIb (mean) log fluorescence intensity (GP IIb; [5]): 22 | GP IIb (mean) log fluorescence intensity (GP IIb; [6]): 29 | GP IIb (peak) log fluorescence intensity (GP IIb; [6]): 25 | GP Ib (mean) log fluorescence intensity (GP Ib; [1]): 146 | GP Ib (peak) log fluorescence intensity (GP Ib; [1]): 94 | GP Ib (mean) log fluorescence intensity (GP Ib; [2]): 299 | GP Ib (peak) log fluorescence intensity (GP Ib; [2]): 266 | GP Ib (mean) log fluorescence intensity (GP Ib; [3]): 309 | GP Ib (peak) log fluorescence intensity (GP Ib; [3]): 336 | GP Ib (mean) log fluorescence intensity (GP Ib; [4]): 167 | GP Ib (peak) log fluorescence intensity (GP Ib; [4]): 165 | GP Ib (mean) log fluorescence intensity (GP Ib; [5]): 198 | GP Ib (peak) log fluorescence intensity (GP Ib; [5]): 167 | GP Ib (mean) log fluorescence intensity (GP Ib; [6]): 222 | GP Ib (peak) log fluorescence intensity (GP Ib; [6]): 201 | PECAM-1 (mean) log fluorescence intensity (PECAM-1; [1]): 74 | PECAM-1 (peak) log fluorescence intensity (PECAM-1; [1]): 60 | PECAM-1 (mean) log fluorescence intensity (PECAM-1; [2]): 101 | PECAM-1 (mean) log fluorescence intensity (PECAM-1; [3]): 81 | PECAM-1 (peak) log fluorescence intensity (PECAM-1; [3]): 74 | PECAM-1 (mean) log fluorescence intensity (PECAM-1; [4]): 94 | PECAM-1 (peak) log fluorescence intensity (PECAM-1; [4]): 83 | PECAM-1 (mean) log fluorescence intensity (PECAM-1; [6]): 90 | PECAM-1 (peak) log fluorescence intensity (PECAM-1; [6]): 84
